According to US20260209200A1, “SALTS OF A DIHYDROOROTATE DEHYDROGENASE (DHOD) INHIBITOR” (priority 2022, published 2026):

Columns and labels:
in vivo [1] = settings: dog; for AUC0-∞ / AUCExtr / AUCinf/D / AUClast / Cmax / F, bioavailability (BA) in dogs / MRT0-∞ / T1/2 / Tmax: 4 mg/kg
Experimental: (§1) Suspensions were stirred continuously prior to dose.
A total of 6 male beagle dogs were used (n=3). 6 male dogs assigned to the study were divided into 2 periods with 6 dogs per period and two dosing cycles separated by a 7-day washout period. The diet was provided ad libitum throughout the in-life portion of the study, except for the fasting prior to dosing through 4 hours post dose. Drinking water was available daily ad libitum to all animals. Formulated PP-001 salts were administered to male beagle dogs by oral administration at 4 mg/kg with dosed volume at 2 mL/kg.
(§2) Plasma samples were collected via the jugular vein cannulation into EDTA-K3 tubes at 0.25, 0.5, 1, 2, 4, 8, and 24 hours post-dose administration. For analytical batch of single oral administration, plasma concentrations of salts of PP-001 were determined using LC-MS/MS with a lower limit of quantitation of 10 ng/mL.
(§3) The pharmacokinetic parameters of PP-001 salts were determined by non-compartmental analysis using WinNonlin Version 8.0 (Pharsight, Mountain View, CA). The area under the curve from the time of dosing to the last measurable concentration, AUC0-t, was calculated by the linear trapezoidal rule. The area under the concentration-time curve extrapolated to infinity, AUCinf, was calculated using a regression of the natural logarithm of the concentration values versus sampling time of the terminal slope (Lambda Z, k). This value is also used to calculate half-life (T1/2) as follows:
(§4) The bioavailability was calculated as follows:
(§5) [formula] • wherein PO is an oral administration and IV is an intravenous injection.

[2] = Kinetic solubility of PP-001 salts in FaSSIF (HPLC); assay type: physicochemical; settings: for Appearance after stirring for 24 hours / Final pH / Solubility at different time points, 0.5 h / Solubility at different time points, 1 h / Solubility at different time points, 2 h / Solubility at different time points, 24 h / Solubility at different time points, Initial: 4 mL FaSSIF, 25° C., target 2 mg/mL
Experimental: Approximately 8 mg (calculated as freebase) of each salt was weighed out into each glass vial and then 4 ml of FaSSIF was added (target concentration was 2 mg/mL). The sample was kept stirring on a magnetic stirrer at a speed of I 00 RPM under 25° C. Then at the time points of initial, 0.5 hr, 1 hr, 2 hrs and 24 hrs, 0.5 mL of sample solution was transferred into 1.5 mL centrifugation tube and centrifuged at 12,000 RPM for 10 min. The supernatant was diluted by 50% ACN suitable and analyzed by HPLC.
An HPLC method of testing solubility was performed as follows in Table A: […]

in vivo [3] = settings: rat
Experimental: as §1
A total of 27 male SD rats were used (n=3). 27 male SD rats assigned to the study were divided into 9 groups and a single type of formulated PP-001 salt was orally administered to each group of rats at dose level of 4 mg/kg (2 mL/kg dose volume). The diet was provided ad libitum throughout the in-life portion of the study, except for the fasting prior to dosing through 4 hours post dose. Drinking water was available daily ad libitum to all animals.
as §2, with “1” for “10”
as §3, §4, §5

[4] = Thermodynamic (equilibrium) solubility of PP-001 salts in FaSSIF; assay type: physicochemical; settings: for Thermodynamic solubility / Appearance after stirring for 24 hours / Final pH: 3 mL FaSSIF, 37° C.; for Thermodynamic solubility: saturated (target 10 mg/mL), time point 2 hrs, pH 6.4 to 6.5; for Appearance after stirring for 24 hours: saturated; for Final pH: pH tested after 24 hours
Experimental: As the solid was completely dissolved, add more sample to keep it saturated. […] Then at the time point 2 hrs, 0.5 mL of sample solution was transferred into 1.5 mL centrifugation tube and centrifuged at 12,000 RPM for 10 min. The supernatant was diluted by 50% ACN suitable and analyzed by HPLC. The pH was tested after 24 hours.

[5] = FaSSIF, comparison from Table 6

| Molecule | Increase in oral BA vs free acid in dogs (in vivo [1]) | AUC0-∞ (in vivo [1]; po) | Appearance after stirring for 24 hours [2] | Solubility at different time points, 0.5 h [2] | Solubility at different time points, 1 h [2] | Solubility at different time points, 2 h [2] | Solubility at different time points, Initial [2] | Increase in oral BA vs free acid in rats (in vivo [3]; in vivo, po) | AUC0-∞ (in vivo [3]; in vivo, po, 4 mg/kg) | AUCExtr (in vivo [3]; in vivo, po, 4 mg/kg) | AUCinf/D (in vivo [3]; in vivo, po, 4 mg/kg) | AUClast (in vivo [3]; in vivo, po, 4 mg/kg) | Cmax (in vivo [3]; in vivo, po, 4 mg/kg) | F, bioavailability (BA) in rats (in vivo [3]; in vivo, po, 4 mg/kg) | MRT0-∞ (in vivo [3]; in vivo, po, 4 mg/kg) | Tmax (in vivo [3]; in vivo, po, 4 mg/kg) | T1/2 (in vivo [3]; in vivo, po, 4 mg/kg, pH 6.8) | Thermodynamic solubility [4] | Solubility at different time points, 24 h [2] | Appearance after stirring for 24 hours [4] | also measured |
| --- | --- | --- | --- | --- | --- | --- | --- | --- | --- | --- | --- | --- | --- | --- | --- | --- | --- | --- | --- | --- | --- |
| [Ca] [Calcium] | 3.0 | 133409 ng·h/mL | suspension | 750 µg/mL | 740 µg/mL | 710 µg/mL | 340 µg/mL | 2.0 | 27157 ng·h/mL | 1.03% | 6789 kg·ng·h/mL/mg | 26827 ng·h/mL | 3280 ng/mL | 15.6% | 5.55 h | 4.00 h | 3.40 h |  |  |  | Increase in bioavailability in dogs (in vivo [1]; po): > 3 fold; AUCExtr (in vivo [1]; po): 1.16%; AUCinf/D (in vivo [1]; po): 33352 kg·ng·h/mL/mg; AUClast (in vivo [1]; po): 131819 ng·h/mL; Cmax (in vivo [1]; po): 22467 ng/mL; F, bioavailability (BA) in dogs (in vivo [1]; po): 68.1%; MRT0-∞ (in vivo [1]; po): 4.38 h; T1/2 (in vivo [1]; po): 3.76 h; Tmax (in vivo [1]; po): 1.67 h; Final pH [2]: 6.51; Solubility at different time points, 24 h ([2]; listed as Ca): 700 µg/mL; Solubility at different time points, 24 h ([2]; listed as Ca cation): 700 µg/mL; Solubility compared to PP-001 free acid [2, 5]: reduced solubility compared to PP-001 free acid |
| CNC[C@H](O)[C@@H](O)[C@H](O)[C@H](O)CO [Meglumine] |  |  |  | 2010 µg/mL | 1980 µg/mL | 2000 µg/mL | 1320 µg/mL | 1.3 | 17083 ng·h/mL | 0.488% | 4271 kg·ng·h/mL/mg | 16995 ng·h/mL | 2217 ng/mL |  | 4.83 h | 3.00 h | 3.02 h | 5690 µg/mL | 1960 µg/mL |  |  |
| [K+] [Potassium] | 4.0 | 180263 ng·h/mL | clear solution | 1700 µg/mL | 2180 µg/mL | 2190 µg/mL | 490 µg/mL | 0.7 | 10112 ng·h/mL | 0.525% | 2528 kg·ng·h/mL/mg | 10049 ng·h/mL | 1144 ng/mL | 5.8% | 5.31 h | 4.00 h | 2.96 h | 2340 µg/mL | 2260 µg/mL | Suspension | Increased solubility vs PP-001 free acid [4, 5]: > 100 % increase; Increased bioavailability in dogs vs PP-001 free acid (in vivo [1]; po): > 400 % increase; AUCExtr (in vivo [1]; po): 1.59%; AUCinf/D (in vivo [1]; po): 45066 kg·ng·h/mL/mg; AUClast (in vivo [1]; po): 177228 ng·h/mL; Cmax (in vivo [1]; po): 33967 ng/mL; MRT0-∞ (in vivo [1]; po): 4.34 h; T1/2 (in vivo [1]; po): 4.15 h; Tmax (in vivo [1]; po): 1.17 h; Final pH [2]: 6.50 |
| Zinc |  |  |  |  |  |  |  | 1.3 | 17122 ng·h/mL | 0.471% | 4281 kg·ng·h/mL/mg | 17033 ng·h/mL | 2490 ng/mL | 9.82% | 5.33 h | 4.00 h | 2.89 h |  |  |  |  |
| NCCCC[C@H](N)C(=O)O [Lysine] |  |  |  | 2040 µg/mL | 2060 µg/mL | 2020 µg/mL | 1370 µg/mL |  |  |  |  |  |  |  |  |  |  | 4650 µg/mL | 2090 µg/mL | Suspension | AUC0-∞ (in vivo [3]; PO 4 mg/kg, mean n=3): 18430 ng·h/mL; AUCExtr (in vivo [3]; PO 4 mg/kg, mean n=3): 0.388%; AUCinf/D (in vivo [3]; PO 4 mg/kg, mean n=3): 4607 kg·ng·h/mL/mg; AUClast (in vivo [3]; PO 4 mg/kg, mean n=3): 18361 ng·h/mL; Cmax (in vivo [3]; PO 4 mg/kg, mean n=3): 2663 ng/mL; F, bioavailability (BA) in rats (in vivo [3]; PO 4 mg/kg, mean n=3): 10.6%; MRT0-∞ (in vivo [3]; PO 4 mg/kg, mean n=3): 4.97 h; Tmax (in vivo [3]; PO 4 mg/kg, mean n=3): 4.00 h; T1/2 (in vivo [3]; PO 4 mg/kg, suspension in pH 6.8 phosphate buffer, mean n=3): 2.85 h; Increase in oral BA vs free acid in rats (in vivo [3]; oral, ratio to PP-001 free acid): 1.4 |
| Sodium | 2.6 | 116660 ng·h/mL | clear solution | 1600 µg/mL | 1730 µg/mL | 1790 µg/mL | 410 µg/mL | 2.4 | 32873 ng·h/mL | 0.743% | 8218 kg·ng·h/mL/mg | 32626 ng·h/mL | 6147 ng/mL | 18.8% | 4.76 h | 2.33 h | 3.34 h | 1850 µg/mL | 2010 µg/mL | Suspension | Final pH [4]: 6.49; AUCExtr (in vivo [1]; po): 2.16%; AUCinf/D (in vivo [1]; po): 29165 kg·ng·h/mL/mg; AUClast (in vivo [1]; po): 114152 ng·h/mL; Cmax (in vivo [1]; po): 16867 ng/mL; F, bioavailability (BA) in dogs (in vivo [1]; po): 59.6%; MRT0-∞ (in vivo [1]; po): 5.28 h; T1/2 (in vivo [1]; po): 4.24 h; Tmax (in vivo [1]; po): 3.00 h |
| Benzathine |  |  |  |  |  |  |  | 0.7 | 9593 ng·h/mL | 0.298% | 2398 kg·ng·h/mL/mg | 9559 ng·h/mL | 1495 ng/mL | 5.5% | 4.81 h | 3.33 h | 2.70 h | 30 µg/mL |  | Suspension | Final pH [4]: 6.43 |
| [Mg] [Magnesium] |  |  | suspension | 1520 µg/mL | 1510 µg/mL | 1440 µg/mL | 330 µg/mL | 1.7 | 23029 ng·h/mL | 0.510% | 5757 kg·ng·h/mL/mg | 22909 ng·h/mL | 3163 ng/mL | 13.2% | 4.87 h | 3.33 h | 3.01 h |  |  |  | Solubility at different time points, 24 h ([2]; listed as Mg): 1010 µg/mL; Solubility at different time points, 24 h ([2]; listed as Mg cation): 1010 µg/mL |
